Measurements taken from patent US20150259331A1, “PROTOZOAN PARASITE GROWTH INHIBITORS” (Northeastern University, priority 2014, published 2015).
Where a name gives a salt, the structure may show the parent alone. Read-outs that look alike come from different tables or passages of the source.

Experiments:
[1] = test system: L. major promastigote; test: L. major promastigote assay; type: cell-based
[2] = test system: T. cruzi; test: T. cruzi growth inhibition; type: cell-based, Trypanosoma cruzi; conditions: for inhibition at 10 µM: read-out: T. cruzi % inh at 10 μM
[3] = test system: P. falciparum D6; test: P. falciparum D6 assay; type: cell-based; conditions: strain D6
[4] = test system: P. falciparum C235; test: P. falciparum C235 assay; type: cell-based; conditions: read-out: P. falciparum C235 (EC50)
[5] = test system: T. brucei brucei Lister 427; test: Trypanosome replication assay; type: cell-based, Trypanosoma brucei brucei; conditions: 48 h, 48 h, values ±7%
Procedure: (§1) Then 2 μL of DMSO (control) or different concentrations of drugs prepared from 200× DMSO stocks were added to the cultures. Cells were incubated at 37° C. for 48 h and counted with a hemocytometer. […] All experiments were repeated thrice in independent studies where each dose was administered in duplicate (total n=6). HepG2 Cell Toxicity Assay. The 384 well MTT cytotoxicity assay is a modification of the MTT method described by Ferrari et al. optimized for 384-well throughput, with modifications described below.

[6] = test system: P. falciparum W2; test: P. falciparum W2 assay; type: cell-based; conditions: strain W2, read-out: P. falciparum W2 (EC50)
[7] = test system: HepG2 cells; test: HepG2 cell toxicity (MTT) assay; type: cell-based
Procedure: as §1, with “cultures.” for “cultures. Cells were incubated at 37° C. for 48 h and counted with a hemocytometer.”
HepG2 Cell Toxicity assay. The 384 well MTT cytotoxicity assay is a modification of the MTT method described by Ferrari et al.^1 ENREF—26_ENREF—26_ENREF—26 optimized for 384 well throughput. […] 4.25 μL of diluted test compound was then added to the 38.3 μL of media in each well providing a 10 fold final dilution of compound. […] After a 48 hour incubation period, 8 μL of a 1.5 mg/ml solution of MTT diluted in complete MEM media was added to each well. All plates were subsequently incubated in the dark for 1 hour at room temperature. After incubation, the media and drugs in each well was removed by shaking plate over sink, the plates are then left to dry in hood for 15 minutes. […] Plates are put on a 3-D rotator for 15-30 minutes. Absorbance was determined in all wells using a Tecan iControl 1.6 Infinite plate reader.

[8] = test system: L. major amastigote; test: L. major amastigote assay; type: cell-based
[9] = Plasmodium falciparum, strain C235
[10] = Trypanosoma brucei, concentration giving 50% inhibition of growth of T brucei brucei Lister 427 cells, read-out: Tbb EC50
[11] = Homo sapiens, HepG2, 48 h, MTT, 48 hour incubation, read-out: HepG2 IC50

Row | SMILES | EC50 ([1]; Leishmania major) [µM] | inhibition at 10 µM ([2]; Trypanosoma cruzi) [%] | EC50 ([3]; Plasmodium falciparum) [nM] | EC50 [4, 9] [nM] | EC50 [5, 10] [nM] | EC50 ([6]; Plasmodium falciparum) [nM] | IC50 [7, 11] [µM] | EC50 ([8]; Leishmania major) [µM] | also measured
1 | CN1CCN(S(=O)(=O)c2ccc(-c3ccc4ncnc(Nc5ccc(OCc6cccc(F)c6)c(Cl)c5)c4c3)cc2)CC1 [Compound 10p, N-(3-Chloro-4-((3-fluorobenzyl)oxy)phenyl)-6-(4-((4-methylpiperazin-1-yl)sulfonyl)phenyl)quinazolin-4-amine] | 2.8 | 60 | 27 | 39 | 530 | 44 | > 15 | 1.6 | –
2 | CN1CCCN(S(=O)(=O)c2ccc(-c3ccc4ncnc(Nc5ccc(OCc6cccc(F)c6)c(Cl)c5)c4c3)cc2)CC1 [Compound 10q, N-(3-Chloro-4-((3-fluorobenzyl)oxy)phenyl)-6-(4((4-methyl-1,4-diazepan-1-yl)sulfonyl)phenyl)quinazolin-4-amine] | 3.6 | – | 46 | 50 | 810 | 52 | 1.81 | 2 | EC50 ([2]; Trypanosoma cruzi): 510 nM
3 | O=S(=O)(c1ccc(-c2ccc3ncnc(Nc4ccc(OCc5cccc(F)c5)c(Cl)c4)c3c2)cc1)N1CCSCC1 [Compound 10r, N-(3-Chloro-4-((3-fluorobenzyl)oxy)phenyl)-6-(4-(thiomorpholinosulfonyl)phenyl)quinazolin-4-amine] | > 15 | 18 | 460 | – | 470 | 1600 | > 15 | > 15 | EC50 ([4]; Plasmodium falciparum): 760 nM
4 | O=S(=O)(c1ccc(-c2ccc3ncnc(Nc4ccc(OCc5cccc(F)c5)c(Cl)c4)c3c2)cc1)N1CCNCC1 [Compound 10s] | – | – | – | – | – | – | – | – | EC50 [1]: > 15 µM; EC50 [2]: 790 nM; EC50 [3]: 94 nM; EC50 ([4]; strain C235): 120 nM; EC50 ([5]; concentration giving 50% inhibition of growth of T brucei brucei Lister 427 cells, read-out: Tbb EC50): 280 nM; EC50 [6]: 200 nM; IC50 ([7]; MTT, 48 hour incubation, read-out: HepG2 IC50): 3.32 µM; EC50 [8]: 0.8 µM
5 | CS(=O)(=O)c1ccc(-c2ccc3ncnc(Nc4ccc(OCc5cccc(F)c5)c(Cl)c4)c3c2)cc1 [Compound 10t, N-(3-Chloro-4-((3-fluorobenzyl)oxy)phenyl)-6-(4-(methylsulfonyl)phenyl)quinazolin-4-amine] | 1.6 | – | 120 | 200 | 900 | 360 | > 15 | 3.9 | EC50 ([2]; Trypanosoma cruzi): 650 nM
6 | CS(=O)(=O)c1cccc(-c2ccc3ncnc(Nc4ccc(OCc5cccc(F)c5)c(Cl)c4)c3c2)c1 [Compound 10u, N-(3-Chloro-4-((3-fluorobenzyl)oxy)phenyl)-6-(3-(methylsulfonyl)phenyl)quinazolin-4-amine] | 3.5 | – | 520 | 620 | – | 1300 | > 15 | 4.7 | EC50 ([2]; Trypanosoma cruzi): 5000 nM; EC50 ([5]; Trypanosoma brucei, read-out: Tbb EC50, concentration giving 50% inhibition of growth of T brucei brucei Lister 427 cells): 3210 nM; EC50 ([5]; read-out: Tbb EC50, concentration giving 50% inhibition of growth of T brucei brucei Lister 427 cells, listed as NEU-633): 3200 nM
7 | CN(C)S(=O)(=O)c1ccccc1-c1ccc2ncnc(Nc3ccc(OCc4cccc(F)c4)c(Cl)c3)c2c1 [Compound 10v, 2-(4-((3-Chloro-4-((3-fluorobenzyl)oxy)phenyl)amino)-quinazolin-6-yl)-N,N-dimethylbenzenesulfonamide] | 2.8 | – | 820 | – | 1040 | 1800 | – | > 15 | EC50 ([2]; Trypanosoma cruzi): 1500 nM; EC50 ([4]; Plasmodium falciparum): 1100 nM; EC50 ([5]; concentration giving 50% inhibition of growth of T brucei brucei Lister 427 cells, listed as NEU-619, read-out: Tbb EC50): 1000 nM; IC50 ([7]; Homo sapiens, HepG2, 48 h, read-out: HepG2 IC50, MTT, 48 hour incubation): > 15 µM
8 | O=S(=O)(c1ccc(-c2ccc3ncnc(Nc4ccccc4)c3c2)cc1)N1CCOCC1 [Compound 20a, 6-(4-(Morpholinosulfonyl)phenyl)-N-phenylquinazolin-4-amine Hydrochloride] | 4.1 | 13 | 4100 | 4100 | 1440 | 4100 | > 3 | 4.1 | EC50 ([5]; concentration giving 50% inhibition of growth of T brucei brucei Lister 427 cells, listed as NEU-548, Hydrochloride, read-out: Tbb EC50): 1400 nM
9 | Cc1ccc(Nc2ncnc3ccc(-c4ccc(S(=O)(=O)N5CCOCC5)cc4)cc23)cc1 [Compound 20b, 6-(4-(Morpholinosulfonyl)phenyl)-N-(p-tolyl)quinazolin-4-amine Hydrochloride] | 0.45 | 59 | 1700 | 2800 | 1150 | 6200 | > 15 | > 15 | EC50 ([5]; concentration giving 50% inhibition of growth of T brucei brucei Lister 427 cells, listed as NEU-549, Hydrochloride, read-out: Tbb EC50): 1200 nM
10 | O=S(=O)(c1ccc(-c2ccc3ncnc(Nc4ccc(O)c(Cl)c4)c3c2)cc1)N1CCOCC1 [Compound 20c, 2-Chloro-4-((6-(4-(morpholinosulfonyl)phenyl)quinazolin-4-yl)amino)phenol Hydrochloride] | > 15 | 14 | 12000 | 19000 | 1060 | 19000 | > 15 | > 15 | EC50 ([5]; concentration giving 50% inhibition of growth of T brucei brucei Lister 427 cells, listed as NEU-550, Hydrochloride, read-out: Tbb EC50): 1100 nM
11 | COc1ccc(Nc2ncnc3ccc(-c4ccc(S(=O)(=O)N5CCOCC5)cc4)cc23)cc1Cl [Compound 20d, N-(3-Chloro-4-methoxyphenyl)-6-(4-(morpholinosulfonyl)-phenyl)quinazolin-4-amine Hydrochloride] | 0.83 | 43 | 810 | 1200 | 820 | 1700 | > 15 | 4.8 | –
12 | O=S(=O)(c1ccc(-c2ccc3ncnc(Nc4ccc(OCc5ccccc5)c(Cl)c4)c3c2)cc1)N1CCOCC1 [Compound 20e, N-(4-(Benzyloxy)-3-chlorophenyl)-6-(4-(morpholinosulfonyl)phenyl)quinazolin-4-amine Hydrochloride] | 0.47 | 9 | 250 | 450 | 1350 | 720 | > 15 | > 15 | EC50 ([5]; concentration giving 50% inhibition of growth of T brucei brucei Lister 427 cells, listed as NEU-551, Hydrochloride, read-out: Tbb EC50): 1400 nM
13 | O=S(=O)(c1ccc(-c2ccc3ncnc(Nc4ccc(OCc5cccc(Br)c5)c(Cl)c4)c3c2)cc1)N1CCOCC1 [Compound 20f, N-(4-((3-Bromobenzyl)oxy)-3-chlorophenyl)-6-(4-(morpholinosulfonyl)phenyl)quinazolin-4-amine Hydrochloride] | 14 | 7 | 200 | 410 | 680 | 440 | > 15 | 0.47 | –
14 | O=S(=O)(c1ccc(-c2ccc3ncnc(Nc4ccc(OCc5cccc(Cl)c5)c(Cl)c4)c3c2)cc1)N1CCOCC1 [Compound 20g, N-(3-Chloro-4-((3-chlorobenzyl)oxy)phenyl)-6-(4-(morpholinosulfonyl)phenyl)quinazolin-4-amine Hydrochloride] | 15 | 4 | 230 | 330 | 660 | 660 | > 15 | 1.1 | –
